Reference: US8969413B2

How the values were obtained:
[1] = tested on: Sprague-Dawley rats; conditions: saline/cocaine pairings, cocaine 20 mg/kg i.p.
[2] = tested on: Sprague-Dawley rats; assay: μPET imaging of 11C-raclopride binding after cocaine; conditions: cocaine 5 mg/kg intravenous, average, preliminary
[3] = biological target: γ-aminobutyric acid aminotransferase (GABA-AT) (Sus scrofa, UniProt P80147); conditions: cited from earlier work
[4] = biological target: T1, mGAT2 (Mus musculus, UniProt P31651); conditions: data from Bolvig et al. 1999; read-out: mGAT2 uptake IC50; cited from earlier work
T1 construct: expressed in transfected cells

[5] = biological target: T2, human ρ1 GABAC receptors (Homo sapiens, UniProt P24046); assay: GABAC receptor two-electrode voltage clamp in Xenopus laevis oocytes; assay type: cell-based; conditions: GABA 1 μM (EC80), clamped at −60 mV
T2 construct: expressed in transfected cells; host or cells: Xenopus laevis oocytes injected with ρ1 mRNA
Protocol: Human ρ1 cDNA encapsulated in pcDNA1.1 was linearized with Not1. Linearized cDNA was transcribed to mRNA using the T7 “mMESSAGE mMACHINE” kit (Ambion Inc. Austin, Tex., USA) as previously described. […] Eur. J. Pharmacol. 2001, 430, 185-192. GABAC receptor activity assays were performed in oocytes harvested from Xenopus laevis (housed in the Department of Veterinary Science at the University of Sydney) and defolliculated. The oocytes were stored in ND96 solution (in mM) NaCl (96), KCl (2), MgCl2 (1), CaCl2 (1.8), HEPES (hemi-Na salt; 5) supplemented with sodium pyruvate (2.5), theophylline (0.5), and 50 μg/ml^−1 gentamycin for 2-5 days post-injection.
Electrophysiological methods were performed as previously described. Hertz L, Juurlink B H J, Hertz E, Fosmark H and Schousboe A. Preparation of Primary Cultures of Mouse (Rat) Astrocytes, in A Dissection and Tissue Culture Mnual of the Nervous System (Shahar A, de Vellis J, Vernadakis A and Haber B eds) pp 105-108, Alan R. Liss, Inc., New York, 1989 Stage V-VI oocytes were injected with 10 ng 50 nl^−1 of ρ1 mRNA and then stored at 16° C. Recordings of receptor activity were obtained for 2-5 days by a two-electrode voltage clamp by means of a Geneclamp 500 amplifier (Axon Instruments Inc., Foster City, Calif.), a MacLab 2e recorder (AD Instruments, Sydney, NSW), and Chart version 3.6.3 program. Oocytes were voltage clamped at −60 mV, and the preparation was continually perfused with ND96 solution at room temperature. […] Compound 2 (CPP-115) was tested on three oocytes from at least two harvests.

[6] = biological target: T3, hGAT-3 (Homo sapiens, UniProt P48066); conditions: data from Kvist et al. 2009; read-out: hGAT-3 uptake IC50; cited from earlier work
T3 construct: expressed in transfected cells; host or cells: tsA201 cells, transient (PolyFect)

[7] = biological target: T4, hGAT-2 (Homo sapiens, UniProt Q9NSD5); conditions: data from Kvist et al. 2009; read-out: hGAT-2 uptake IC50; cited from earlier work
T4 construct: expressed in transfected cells; host or cells: tsA201 cells, transient (PolyFect)

[8] = tested on: Rat; assay: subcutaneous Metrazol seizure threshold test (scMET); assay type: in vivo; conditions: 7 days IP, at 600 mg/kg, Metrazol 70 mg/kg
Protocol: (§1) Subcutaneous injection of the convulsant Metrazol produces clonic seizures in laboratory animals. […] Animals are pretreated with various doses of the test compound given by i.p. injection. At the previously determined TPE of the test compound, the dose of Metrazol which will induce convulsions in 97% of animals (CD97; 85 mg/kg mice) is injected into a loose fold of skin in the midline of the neck. The animals are placed in isolation cages to minimize stress (Swinyard et al, 1961) and observed for the next 30 minutes for the presence or absence of a seizure. An episode of clonic spasms, approximately 3-5 seconds, of the fore and/or hindlimbs, jaws, or vibrissae is taken as the endpoint.

[9] = tested on: Mice; assay: as above; assay type: in vivo; conditions: Single IP drug dose, Metrazol 85 mg/kg; up to 1500 mg/kg
Protocol: as §1

[10] = tested on: Mice; assay: subcutaneous picrotoxin (scPIC); assay type: in vivo; conditions: Single IP drug dose, 2.5 mg/kg PIC; up to 100 mg/kg
Protocol: Bicuculline (Bic) and Picrotoxin (Pic) are chemoconvulsants that cause clonic seizures in a manner similar to Metrazol (see scMET test). […] Therefore, as much as possible it is useful to differentiate novel AEDs pharmacologically. […]. At a previously determined time of peak effect (TPE), the animals are given a subcutaneous injection of either of the noted chemo-convulsants using the convulsive dose (CD97—a dose of 2.7 or 2.5 mg/kg, for Bic and Pic, respectively). The experimental animals are placed in isolation cages to minimize possible crowding stresses (Swinyard et al., 1961) and observed for the next 30 minutes (for Bic) or 45 minutes (for Pic) for the presence or absence of a seizure. An episode of clonic spasms, approximately 3-5 seconds, of the fore and/or hindlimbs, jaws, or vibrissae is used as the experimental endpoint.

[11] = tested on: Mice; assay: minimal clonic seizure (6 Hz) test; assay type: in vivo; conditions: Single IP drug dose, 3 seconds; for ED50: Mus musculus, ip; for ED50 / 6 Hz TPE: corneal electrode
Text: Some clinically useful AEDs are ineffective in the standard MES and scMET tests but still have anticonvulsant activities in vivo. In order to identify potential AEDs with this profile, compounds may be tested in the minimal clonic seizure (6 Hz or ‘psychomotor’) test (Barton et al., 2001). […] Test compounds are pre-administered to mice via i.p. injection. At varying times, individual mice (four per time point) are challenged with sufficient current delivered through corneal electrodes to elicit a psychomotor seizure in 97% of animals (32 mA for 3 s) (Toman et al., 1952). Untreated mice will display seizures characterized by a minimal clonic phase followed by stereotyped, automatistic behaviors described originally as being similar to the aura of human patients with partial seizures. Animals not displaying this behavior are considered protected. The test may be evaluated quantitatively by measuring the responses at varying doses at a determined time of peak effect (TPE). This test may also be conducted at 22 and 44 mA if requested by ASP staff.

[12] = tested on: Sprague-Dawley rats; conditions: vigabatrin, earlier work; cited from earlier work
[13] = tested on: Sprague-Dawley rats; conditions: vigabatrin, Ashby et al. 1999; cited from earlier work
[14] = tested on: humans; conditions: trial of 103 subjects, cocaine dependence; cited from earlier work
[15] = tested on: Mice; assay: corneal kindling; assay type: in vivo; conditions: Single IP drug dose, 3 secs; for ED50: read-out: Corn. Kind. ED50
Text: Mice are kindled electrically with 3 sec stimulation, 8 mA, 60 Hz, and corneal electrodes to a criterion of 10 consecutive Stage 5 seizures (facial clonus and head nodding progressing to forelimb clonus, and finally rearing and falling accompanied by a generalized clonic seizure as described by Racine). Stage 5 is generally reached after twice daily stimulation for 8 days. With continued stimulation once a day, animals usually progress to a reproducible Stage 5 after 10-14 additional days. At least 72 hours after the mice have been kindled, the test substance is administered either i.p. or p.o. and, at the previously determined TPE, each animal is given the electrical stimulus indicated above. Following stimulation, the animals are observed for the presence or absence of the rearing and falling criteria of a Stage 5 seizure. Treated animals not displaying a Stage 3, 4, or 5 seizure are considered protected. The dose of the test substance is varied between the limits of 0 and 100% efficacy, and the ED50 (mean effective dose) and 95% confidence intervals calculated by probit analysis. Mean values and the S.E.M. are calculated for the length of clonus and seizure duration and p values are determined by the Student's t-test

[16] = tested on: Sprague Dawley rats; assay: cocaine induced dopamine surge in nucleus accumbens (FIG. 3); conditions: vigabatrin 300 mg/kg single dose
[17] = tested on: human brain GABA; conditions: after a single dose; cited from earlier work
[18] = tested on: patients; conditions: cited from earlier work

Chain of γ-aminobutyric acid aminotransferase (GABA-AT) (P80147 29-500): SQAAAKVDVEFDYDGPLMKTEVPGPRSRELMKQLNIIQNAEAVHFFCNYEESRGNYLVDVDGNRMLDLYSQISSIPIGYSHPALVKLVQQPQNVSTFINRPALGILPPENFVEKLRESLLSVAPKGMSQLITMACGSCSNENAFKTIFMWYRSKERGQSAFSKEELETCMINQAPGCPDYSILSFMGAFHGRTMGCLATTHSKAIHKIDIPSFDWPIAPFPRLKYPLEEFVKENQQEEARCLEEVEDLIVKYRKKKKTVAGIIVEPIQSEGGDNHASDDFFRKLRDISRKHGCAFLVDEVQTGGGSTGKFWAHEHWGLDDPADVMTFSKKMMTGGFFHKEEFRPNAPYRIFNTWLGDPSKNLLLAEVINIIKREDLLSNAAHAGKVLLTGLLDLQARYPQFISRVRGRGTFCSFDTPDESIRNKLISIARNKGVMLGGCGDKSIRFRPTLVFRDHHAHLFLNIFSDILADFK
T2 sequence (P24046 21-479 limits assumed): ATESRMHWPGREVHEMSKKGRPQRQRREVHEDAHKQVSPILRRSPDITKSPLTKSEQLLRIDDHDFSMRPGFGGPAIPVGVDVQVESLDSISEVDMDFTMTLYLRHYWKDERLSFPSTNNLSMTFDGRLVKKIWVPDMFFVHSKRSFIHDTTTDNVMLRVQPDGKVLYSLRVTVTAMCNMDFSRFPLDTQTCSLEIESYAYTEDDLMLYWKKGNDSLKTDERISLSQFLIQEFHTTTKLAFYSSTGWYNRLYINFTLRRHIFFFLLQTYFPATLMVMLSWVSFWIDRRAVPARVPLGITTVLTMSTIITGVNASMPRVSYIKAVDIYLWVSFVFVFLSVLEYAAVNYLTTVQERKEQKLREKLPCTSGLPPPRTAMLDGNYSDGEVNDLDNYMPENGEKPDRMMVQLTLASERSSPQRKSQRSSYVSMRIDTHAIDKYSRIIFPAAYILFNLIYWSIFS
T1 sequence (P31651 whole entry): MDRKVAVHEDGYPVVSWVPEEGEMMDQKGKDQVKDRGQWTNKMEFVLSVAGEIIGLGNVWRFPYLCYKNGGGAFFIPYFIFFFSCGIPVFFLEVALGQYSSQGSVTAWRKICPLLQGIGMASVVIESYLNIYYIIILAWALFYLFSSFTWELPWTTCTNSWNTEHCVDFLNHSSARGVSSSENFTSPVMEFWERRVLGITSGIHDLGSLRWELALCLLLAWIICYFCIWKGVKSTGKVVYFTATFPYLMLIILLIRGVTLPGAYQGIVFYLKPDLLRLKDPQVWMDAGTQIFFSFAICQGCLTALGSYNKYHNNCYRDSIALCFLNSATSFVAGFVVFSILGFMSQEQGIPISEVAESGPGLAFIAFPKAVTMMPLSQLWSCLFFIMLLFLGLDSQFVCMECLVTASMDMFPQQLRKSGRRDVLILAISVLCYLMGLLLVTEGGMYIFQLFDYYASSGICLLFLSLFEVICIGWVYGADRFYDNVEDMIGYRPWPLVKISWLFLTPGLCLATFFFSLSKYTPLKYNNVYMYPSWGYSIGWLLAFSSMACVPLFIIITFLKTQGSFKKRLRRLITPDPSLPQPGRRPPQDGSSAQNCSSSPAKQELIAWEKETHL
T3 sequence (P48066 whole entry): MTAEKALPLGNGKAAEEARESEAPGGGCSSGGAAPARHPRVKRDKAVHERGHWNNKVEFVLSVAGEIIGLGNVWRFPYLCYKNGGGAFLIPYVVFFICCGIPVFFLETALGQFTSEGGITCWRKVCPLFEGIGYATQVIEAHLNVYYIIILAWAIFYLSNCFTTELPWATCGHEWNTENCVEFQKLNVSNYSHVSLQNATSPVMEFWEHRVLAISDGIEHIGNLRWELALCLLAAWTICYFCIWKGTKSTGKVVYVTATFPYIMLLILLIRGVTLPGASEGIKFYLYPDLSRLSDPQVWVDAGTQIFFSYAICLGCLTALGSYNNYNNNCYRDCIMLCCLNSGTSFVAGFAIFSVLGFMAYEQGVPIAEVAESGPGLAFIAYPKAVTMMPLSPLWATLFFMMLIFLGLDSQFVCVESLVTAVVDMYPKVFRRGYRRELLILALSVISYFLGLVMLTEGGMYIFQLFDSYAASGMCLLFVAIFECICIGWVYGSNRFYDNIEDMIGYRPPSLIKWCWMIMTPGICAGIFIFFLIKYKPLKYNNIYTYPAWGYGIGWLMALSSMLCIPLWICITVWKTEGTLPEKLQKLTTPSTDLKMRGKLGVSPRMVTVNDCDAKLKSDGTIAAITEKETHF
T4 sequence (Q9NSD5 whole entry): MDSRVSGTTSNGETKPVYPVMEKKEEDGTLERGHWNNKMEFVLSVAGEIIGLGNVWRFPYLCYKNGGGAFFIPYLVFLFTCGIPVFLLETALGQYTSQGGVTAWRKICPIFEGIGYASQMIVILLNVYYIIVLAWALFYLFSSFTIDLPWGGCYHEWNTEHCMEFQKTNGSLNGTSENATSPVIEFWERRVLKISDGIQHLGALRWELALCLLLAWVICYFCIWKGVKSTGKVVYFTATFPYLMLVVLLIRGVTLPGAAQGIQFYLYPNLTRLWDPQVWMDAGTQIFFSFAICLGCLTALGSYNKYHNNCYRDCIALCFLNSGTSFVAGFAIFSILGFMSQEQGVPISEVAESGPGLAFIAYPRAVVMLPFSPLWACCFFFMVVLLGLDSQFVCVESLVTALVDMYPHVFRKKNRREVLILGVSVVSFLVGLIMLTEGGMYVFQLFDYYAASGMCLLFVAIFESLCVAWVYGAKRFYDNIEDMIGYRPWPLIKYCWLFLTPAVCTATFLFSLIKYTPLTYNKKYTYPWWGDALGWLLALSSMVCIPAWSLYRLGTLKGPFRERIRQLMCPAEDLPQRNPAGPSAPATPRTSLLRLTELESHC

COC(=O)[C@H]1[C@@H](OC(=O)c2ccccc2)C[C@@H]2CC[C@H]1N2C [cocaine, reference compound]
time spent in the other chamber [1]: 4.8 ± 2.8 min
time spent in cocaine-paired chamber ([1]; p<0.01): 12.2 ± 1.7 min
reduction of 11C-raclopride binding [2]: 22%

C=C1C[C@H](C(=O)O)C[C@@H]1N [compound 6, (1S,3S)-3-amino-4-methylenyl-1-cyclopentanoic acid]
inactivation of GABA-AT ([3]; without 2-mercaptoethanol): inactivation of GABA-AT was observed

N[C@@H]1C=C[C@H](C(=O)O)C1 [compound 1, (1R,4S)-4-amino-cyclopent-2-ene-1-carboxylic acid]
specificity constant relative to GABA ([3]; substrate of GABA-AT): almost five times greater than that of GABA

NCCCC(=O)O [GABA, γ-aminobutyric acid]
IC50 [4]: 51 µM
activation of current in oocytes [5]: activated an inward current
IC50 [6]: 10 µM
IC50 [7]: 11 µM

C=CC(N)CCC(=O)O (centres unmarked) [Vigabatrin, γ-vinyl GABA, reference compound]
scMET protection [8]: 75% protection at 600
scMET protection [9]: Minimal protection up
scPIC protection [10]: Minimal protection up
ED50 ([11]; 32 mA): 23.4 mg/kg
ED50 ([11]; 44 mA): 154 mg/kg
6 Hz protection ([11]; 22 mA, all times @ 100 mg/kg): “good protection” @
6 Hz TPE ([11]; 32 mA): TPE 4 hours
6 Hz TPE ([11]; 44 mA): TPE 4 hours
dose required for similar findings (block of cocaine-induced CPP) [12]: 300 mg/kg
dose effective previously against cocaine-induced dopamine increase [13]: 300 mg/kg
subjects who achieved abstinence [14]: 28.0%
ED50 ([15]; 192 h, primed @ 8 mA, 60 Hz, for 8 days): 80.4 mg/kg
ED50 ([15]; 288 h, primed @ 3 mA, 50 Hz, for 12 days): 159 mg/kg
Corn. Kind. TPE ([15]; primed @ 8 mA, 60 Hz, for 8 days): TPE 4 hours
dopamine increase after cocaine challenge [16]: > 300% of baseline
brain GABA levels [17]: remain substantially elevated for several days
share of patients affected with visual field defects ([18]; after multiple years of therapy): One third or more of patients
patients with visual field defects ([18]; following chronic administration): 25-50%
occurrence of visual field defect ([18]; shorter duration exposure, stimulant addiction studies): does not show any occurrence of visual field defect
time after initiation of therapy at which visual field defects were detectable ([18]; some patients): less than 2 months
